Measurements reported in US7270833B2, “Cardioplegic solution” (Jolife AB, priority 2000, dated 2007).

Columns and labels:
[1] = system: pigs with electrically induced ventricular fibrillation; assay: Internal cardiopulmonary resuscitation by continuous left ventricle infusion of potassium chloride, followed by V-A ECMO; assay type: in vivo
Description: The purpose of the experiment was to evaluate the effects of continuous potassium chloride infusion during internal CPR with a catheter inserted into the left ventricle and to investigate the need for ECMO (extracorporeal membrane oxygenation) after high dose potassium chloride treatment during CPR, to obtain return of ROSC after prolonged CPR.
The haemodynamic parameters continuously was measured and stored as mean values every 5 second. Blood gases was analyzed with a Radiometer™ ABL 555® blood gas machine. Drug administration (Addex® potassium 4 mmol/ml, Fresenius Kabi, Uppsala, Sweden. 40 mg/ml papaverin, NM Pharma, Stockholm, Sweden.) during CPR was given according a specific protocol.
The following data parameters were measured and stored as mean values every 5 seconds throughout the experiment:
ECG, arterial pressure (SAP/MAP/DAP), central venous pressure (CVP), coronary perfusion pressure (CPP), carotid flow (CF), temperature, urine production (every 15 min), and blood gases.
The blood gas (Radiometer™, ABL 555®) data parameter were measured and stored intermittently or written down by hand throughout the experiment.
Electrically ventricular fibrillation was induced electrically in healthy test pigs (25-80 kg in body weight) at normothermic conditions (a body temperature of 38° C.). After 90 seconds of untreated ventricular fibrillation internal heart massage started manually and continued for 60 min. At the same time a booster injection of 10 ml potassium (Addex® potassium 4 mmol/ml, Fresenius Kabi, Uppsala, Sweden) and 3 ml papaverin sulfate (Papaverin 40 mg/ml, NM Pharma, Stockholm, Sweden) was given. Directly after a potassium infusion (Addex® potassium 4 mmol/ml, Fresenius Kabi, Uppsala, Sweden) was started (100 ml/h for 20 min, 50 ml/h for 20 min, 20 ml/h for 20 min). […] After 60 minutes of resuscitation V-A (venoarterial) ECMO was established and by ultrafiltration the serum potassium ion concentration was reduced towards normal levels.
After the 6-hour test period, the animal was put to death with a euthanasia solution.

[2] = system: pigs with ventricular fibrillation; assay: Potassium chloride cardioplegia during heart compressions in pigs with induced ventricular fibrillation; assay type: in vivo, pig; details: for development of stone heart: pigs, induced ventricular fibrillation, continuous infusion of potassium chloride, heart compressions for 1 hour
Description: Due to the access to the new external chest compression machine, “Lucas”, we have run extensive experiments in pigs. Until now we have run experiments in 5 years and used over 800 pigs. This new machine is much more efficient than manual compression of the chest. About 30% of the pigs with ventricular fibrillation survived 1 hour of external heart massage with the machine in normothermia. With manual compression no pigs survived 15 minutes. […] We noticed that this started to happen after 15 minutes.
The idea then came up that if cardioplegia is induced to the heart during heart arrest, it would be possible to eliminate this stone heart condition and make 100% of the hearts survive 60 minutes of heart compression. In clinical heart surgery we routinely use potassium to accomplish depolarisation and cardioplegia. We induced ventricular fibrillation in pigs and then induced cardioplegia in the form of potassium chloride into a central venous needle or even directly into the left ventricle, thereby inducing cardioplegia. By a continuous infusion of potassium chloride we kept the heart in a cardioplegic condition. […] After 60 minutes we cannulated the pig in the femoral artery and vein and established an extracorporeal membrane oxygenation (ECMO). […] When cardioplegia is induced in a heart at normotermia, 90% of the need for oxygen is eliminated, and the heart is arrested in a relaxed condition. Such a heart is very easy to perform external or internal heart massage on.

[Cl-].[K+] [potassium chloride]
Event: heart beating ([1]; 25 kg Swedish domestic pig, Exp. Time 2:22:01, after stop K at 2:18:38, on bypass): spontaneously | Event: urine production ([1]; 25 kg Swedish domestic pig, Exp. Time 4:29:33, after off bypass at 3:42:43): normal urine | heart rhythm / ROSC ([1]; after 1 h of CPR in combination with potassium administration followed by ECMO, FIG. 1): ROSC came into effect | return of spontaneous heart beat after potassium chloride washed away by filtration ([2]; after 60 minutes of heart compressions, ECMO via femoral artery and vein): the heart started to beat spontaneously again | recovery of hearts after heart massage ([2]; experimental animal with acute ventricular fibrillation, after one hour of heart massage): possible to recover all hearts | development of stone heart [2]: without the development of stone heart | development of stone heart ([2]; listed as potassium): eliminates the development of stone heart
